Assay results: US12421254B2, “KRAS modulators and uses thereof” (Quanta Therapeutics, Inc., priority 2023, dated 2025)
Like-named read-outs stand apart in the source and are kept apart here.

Columns and labels:
[1] = test system: phospho-ERK in GP2D (KRAS-G12D) cells; test: pERK In Cell Western (ICW) assay (Method B), GP2D; format: cell-based; settings: GP2d, 3 h, Table 4
Outline: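 Read-out is In-Cell Western phospho-ERK signal divided by DRAQ5 per well, as percent of blank control, fitted with a 4-parameter variable-slope model for IC50. Compounds were dosed as 9-point half-log series for 3 h at 37°C on AGS, GP2D (G12D) or SW620 (G12V) cells plated the day before.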

[2] = target: GST-tagged KRAS-G12D (2-169) (Homo sapiens, UniProt P01116, G12D); test: Nucleotide exchange assay (NEA), SOS-mediated, HTRF, KRAS G12D; format: biochemical; settings: IC50 extracted at 30 min, 20 nM SOScat
GST-tagged KRAS-G12D (2-169), sequence (P01116 2-169 isoform P01116-2 G12D): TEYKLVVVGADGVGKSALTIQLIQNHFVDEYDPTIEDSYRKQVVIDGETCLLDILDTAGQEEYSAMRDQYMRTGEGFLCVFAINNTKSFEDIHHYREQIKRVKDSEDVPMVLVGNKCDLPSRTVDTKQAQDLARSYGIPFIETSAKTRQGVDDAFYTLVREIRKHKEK
Outline: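 SOS1cat-driven loading of fluorescent GTP-DY-647P1 (150 nM) onto GST-KRAS-G12D (2-169, 0.25 nM) read by time-resolved FRET; SOScat 20 nM, compound preincubated with KRAS 1 h at RT. Signal blanked to no-SOS reactions, normalized to DMSO; IC50 fitted from the 30-min read.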

[3] = Table 2, read-out: NEA-G12D (uM) IC50
[4] = Table 4, read-out: NEA G12D IC50

Structure (SMILES)	IC50 [1]	IC50 [2, 3]	IC50 [2, 4]
N#Cc1c(N)sc2c1C1(CC2)CN(c2nc(OCC34CCCN3CC(F)C4)nc(N3CC4CCC(C3)N4)n2)C1 [Compound 1, 2-amino-1′-[4-(3,8-diazabicyclo[3.2.1]octan-3-yl)-6-[[(2R,8S)-2-fluoro-1,2,3,5,6,7-hexahydropyrrolizin-8-yl]methoxy]-1,3,5-triazin-2-yl]spiro[5,6-dihydrocyclopenta[b]thiophene-4,3′-azetidine]-3-carbonitrile]	10 to 100 nM	< 0.01 µM	< 0.01 µM
N#Cc1c(N)sc2c1C1(CC2)CN(c2nc(OCC3(CN4CCOCC4)CC3)nc(N3C[C@H]4CC[C@@H](C3)N4)n2)C1 [Compound 2, 2-amino-1′-[4-[[1-(morpholinomethyl)cyclopropyl]methoxy]-6-[(1R,5S)-3,8-diazabicyclo[3.2.1]octan-3-yl]-1,3,5-triazin-2-yl]spiro[5,6-dihydrocyclopenta[b]thiophene-4,3′-azetidine]-3-carbonitrile]	10 to 100 nM	< 0.01 µM	< 0.01 µM
N#Cc1c(N)sc2c1C1(CCC2)CN(c2nc(OCC3(CN4CCOCC4)CC3)nc(N3C[C@H]4CC[C@@H](C3)N4)n2)C1 [Compound 3, 2-amino-1′-[4-[(1R,5S)-3,8-diazabicyclo[3.2.1]octan-3-yl]-6-[[1-(morpholinomethyl)cyclopropyl]methoxy]-1,3,5-triazin-2-yl]spiro[6,7-dihydro-5H-benzothiophene-4,3′-azetidine]-3-carbonitrile]	10 to 100 nM	< 0.01 µM	< 0.01 µM
N#Cc1c(N)sc2c1C1(CC2)CN(c2nc(OCC3(CN4CCOCC4)CC3)nc(N3CCCC4(C3)NC(=O)NC4=O)n2)C1 (stereo not drawn) [Compound 7, 2-amino-1′-[4-(2,4-dioxo-1,3,9-triazaspiro[4.5]decan-9-yl)-6-[[1-(morpholinomethyl)cyclopropyl]methoxy]-1,3,5-triazin-2-yl]spiro[5,6-dihydrocyclopenta[b]thiophene-4,3′-azetidine]-3-carbonitrile]	1000 to 20000 nM	< 0.01 µM	< 0.01 µM
C[C@@]1(O)CCCN(c2nc(OC[C@@]34CCCN3C[C@H](F)C4)nc(N3CC4(CCc5sc(N)c(C#N)c54)C3)n2)C1 [Compound 10, 2-amino-1′-[4-[[(2R,8S)-2-fluoro-1,2,3,5,6,7-hexahydropyrrolizin-8-yl]methoxy]-6-[(3R)-3-hydroxy-3-methyl-1-piperidyl]-1,3,5-triazin-2-yl]spiro[5,6-dihydrocyclopenta[b]thiophene-4,3′-azetidine]-3-carbonitrile]	10 to 100 nM	< 0.01 µM	< 0.01 µM
N#Cc1c(N)sc2c1C1(CC2)CN(c2nc(OC[C@@]34CCCN3C[C@H](F)C4)nc(N3CCCC(C#N)C3)n2)C1 (stereo partly drawn) [Compound 13, 2-amino-1′-[4-(3-cyano-1-piperidyl)-6-[[(2R,8S)-2-fluoro-1,2,3,5,6,7-hexahydropyrrolizin-8-yl]methoxy]-1,3,5-triazin-2-yl]spiro[5,6-dihydrocyclopenta[b]thiophene-4,3′-azetidine]-3-carbonitrile]	100 to 1000 nM	0.01 to 0.1 µM	0.01 to 0.1 µM
